In PubChem BioAssay (NCI):
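Exposure lasted 48 hours, with cells grown in 96-well plates and compounds tested at five concentrations. At the TGI there is no net growth.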

Legend:
Experiment in all cases: growth of human tumour cells (NCI), 48 h
[1] = test system: SF-295 CNS
[2] = test system: CCRF-CEM leukemia
[3] = test system: SK-MEL-2 melanoma
[4] = test system: ACHN renal
[5] = test system: DMS 114 small cell lung
[6] = test system: NCI-H522 lung
[7] = test system: UO-31 renal
[8] = test system: SR leukemia
[9] = test system: NCI-H23 lung
[10] = test system: IGROV1 ovarian
[11] = test system: MALME-3M melanoma
[12] = test system: RXF 393 renal
[13] = test system: OVCAR-4 ovarian
[14] = test system: A549 NSCLC
[15] = test system: A498 renal
[16] = test system: SF-268 CNS
[17] = test system: DMS 273 small cell lung
[18] = test system: OVCAR-3 ovarian
[19] = test system: M19-MEL melanoma
[20] = test system: LXFL 529 NSCLC
[21] = test system: TK-10 renal
[22] = test system: KM12 colon
[23] = test system: 786-0 renal
[24] = test system: SK-MEL-28 melanoma
[25] = test system: COLO 205 colon
[26] = test system: LOX IMVI melanoma
[27] = test system: U251 CNS
[28] = test system: HOP-62 NSCLC
[29] = test system: SNB-78 CNS
[30] = test system: EKVX NSCLC
[31] = test system: UACC-62 melanoma
[32] = test system: SNB-75 CNS
[33] = test system: NCI-H226 lung
[34] = test system: RPMI-8226 leukemia
[35] = test system: M14 melanoma
[36] = test system: HCT-15 colon
[37] = test system: HOP-92 NSCLC
[38] = test system: MOLT-4 leukemia
[39] = test system: HT29 colon
[40] = test system: SN12C renal
[41] = test system: SW-620 colon
[42] = test system: XF 498 CNS
[43] = test system: OVCAR-5 ovarian
[44] = test system: SK-MEL-5 melanoma
[45] = test system: SNB-19 CNS
[46] = test system: CAKI-1 renal
[47] = test system: SF-539 CNS
[48] = test system: SK-OV-3 ovarian
[49] = test system: HL-60(TB) leukemia
[50] = test system: DLD-1 colon
[51] = test system: NCI-H460 lung
[52] = test system: HCT-116 colon
[53] = test system: OVCAR-8 ovarian
[54] = test system: HOP-18 NSCLC
[55] = test system: KM20L2 colon
[56] = test system: UACC-257 melanoma
[57] = test system: K-562 leukemia
[58] = test system: RXF-631 renal
[59] = test system: HCC-2998 colon

## NC(=O)c1nc(-c2ccc(Cl)c(Cl)c2)nc2ccccc12
[1]
  TGI: > 100 µM
[2]
  TGI: > 100 µM
[3]
  TGI: > 100 µM
[4]
  TGI: > 100 µM
[5]
  TGI: > 100 µM
[6]
  TGI: > 100 µM
[7]
  TGI: > 100 µM
[8]
  TGI: > 100 µM
[9]
  TGI: > 100 µM
[10]
  TGI: > 100 µM
[11]
  TGI: 30 µM
[12]
  TGI: > 22.2 µM
[13]
  TGI: > 100 µM
[14]
  TGI: > 100 µM
[15]
  TGI: > 100 µM
[16]
  TGI: > 100 µM
[17]
  TGI: > 24.9 µM
[18]
  TGI: > 29.4 µM
[19]
  TGI: > 100 µM
[20]
  TGI: > 100 µM
[21]
  TGI: > 100 µM
[22]
  TGI: > 100 µM
[23]
  TGI: > 100 µM
[24]
  TGI: > 40.9 µM
[25]
  TGI: > 100 µM
[26]
  TGI: > 100 µM
[27]
  TGI: > 100 µM
[28]
  TGI: > 100 µM
[29]
  TGI: > 100 µM
[30]
  TGI: > 100 µM
[31]
  TGI: > 100 µM
[32]
  TGI: 11.7 µM
[33]
  TGI: > 100 µM
[34]
  TGI: > 100 µM
[35]
  TGI: > 100 µM
[36]
  TGI: > 100 µM
[37]
  TGI: 4.74 µM
[38]
  TGI: > 100 µM
[39]
  TGI: > 100 µM
[40]
  TGI: > 100 µM
[41]
  TGI: > 100 µM
[42]
  TGI: > 100 µM
[43]
  TGI: > 100 µM
[44]
  TGI: > 100 µM
[45]
  TGI: > 100 µM
[46]
  TGI: > 100 µM
[47]
  TGI: > 95.5 µM
[48]
  TGI: > 27.3 µM
[49]
  TGI: > 100 µM
[50]
  TGI: > 100 µM
[51]
  TGI: > 100 µM
[52]
  TGI: > 100 µM
[53]
  TGI: > 21.8 µM
[54]
  TGI: > 100 µM
[55]
  TGI: > 100 µM
[56]
  TGI: > 100 µM
[57]
  TGI: > 31.6 µM

## COC(=O)C(=O)C(C#N)c1c(Cl)cccc1Cl (stereo not given)
[1]
  TGI: > 100 µM
[3]
  TGI: > 100 µM
[4]
  TGI: > 100 µM
[5]
  TGI: > 100 µM
[6]
  TGI: > 100 µM
[7]
  TGI: > 100 µM
[9]
  TGI: > 100 µM
[10]
  TGI: > 100 µM
[11]
  TGI: > 100 µM
[12]
  TGI: > 100 µM
[13]
  TGI: > 100 µM
[14]
  TGI: > 100 µM
[15]
  TGI: > 100 µM
[16]
  TGI: > 100 µM
[17]
  TGI: > 100 µM
[18]
  TGI: > 100 µM
[58]
  TGI: > 100 µM
[19]
  TGI: > 100 µM
[20]
  TGI: > 100 µM
[21]
  TGI: > 100 µM
[23]
  TGI: > 100 µM
[24]
  TGI: > 100 µM
[25]
  TGI: > 100 µM
[26]
  TGI: > 100 µM
[28]
  TGI: > 100 µM
[29]
  TGI: > 100 µM
[30]
  TGI: > 100 µM
[31]
  TGI: > 100 µM
[32]
  TGI: > 100 µM
[33]
  TGI: > 100 µM
[34]
  TGI: > 100 µM
[35]
  TGI: > 100 µM
[36]
  TGI: > 100 µM
[37]
  TGI: > 100 µM
[38]
  TGI: > 100 µM
[39]
  TGI: > 100 µM
[40]
  TGI: > 100 µM
[41]
  TGI: > 100 µM
[42]
  TGI: > 100 µM
[43]
  TGI: > 100 µM
[44]
  TGI: > 100 µM
[45]
  TGI: > 100 µM
[46]
  TGI: > 100 µM
[47]
  TGI: > 100 µM
[48]
  TGI: > 100 µM
[49]
  TGI: > 100 µM
[50]
  TGI: > 100 µM
[51]
  TGI: > 100 µM
[52]
  TGI: > 100 µM
[53]
  TGI: > 100 µM
[55]
  TGI: > 100 µM
[56]
  TGI: > 100 µM
[57]
  TGI: > 100 µM

## CCOC(=O)C(=O)Nc1nc2ccc(C)cc2s1
[2]
  TGI: > 100 µM
[3]
  TGI: > 100 µM
[4]
  TGI: > 100 µM
[5]
  TGI: > 100 µM
[6]
  TGI: > 100 µM
[7]
  TGI: > 100 µM
[8]
  TGI: > 100 µM
[9]
  TGI: > 100 µM
[10]
  TGI: > 100 µM
[11]
  TGI: > 100 µM
[13]
  TGI: > 100 µM
[14]
  TGI: > 100 µM
[15]
  TGI: > 100 µM
[16]
  TGI: > 100 µM
[17]
  TGI: > 100 µM
[18]
  TGI: > 100 µM
[58]
  TGI: > 100 µM
[19]
  TGI: > 100 µM
[20]
  TGI: > 100 µM
[22]
  TGI: > 100 µM
[59]
  TGI: > 100 µM
[23]
  TGI: > 100 µM
[24]
  TGI: > 100 µM
[25]
  TGI: > 100 µM
[27]
  TGI: > 100 µM
[28]
  TGI: > 100 µM
[29]
  TGI: > 100 µM
[30]
  TGI: > 100 µM
[31]
  TGI: > 100 µM
[32]
  TGI: > 100 µM
[33]
  TGI: > 100 µM
[34]
  TGI: > 100 µM
[35]
  TGI: > 100 µM
[36]
  TGI: > 100 µM
[37]
  TGI: > 100 µM
[38]
  TGI: > 100 µM
[39]
  TGI: > 100 µM
[40]
  TGI: > 100 µM
[41]
  TGI: > 100 µM
[42]
  TGI: > 100 µM
[43]
  TGI: > 100 µM
[44]
  TGI: > 100 µM
[45]
  TGI: > 100 µM
[46]
  TGI: > 100 µM
[47]
  TGI: > 100 µM
[48]
  TGI: > 100 µM
[50]
  TGI: > 100 µM
[51]
  TGI: > 100 µM
[52]
  TGI: > 100 µM
[53]
  TGI: > 100 µM
[55]
  TGI: > 100 µM
[56]
  TGI: > 100 µM
[57]
  TGI: > 100 µM

## COC1CC(n2cc(F)c(N)nc2=O)OC1CO (stereo not given)
[1]
  TGI: > 100 µM
[2]
  TGI: > 100 µM
[3]
  TGI: > 100 µM
[4]
  TGI: > 100 µM
[5]
  TGI: > 100 µM
[6]
  TGI: > 100 µM
[7]
  TGI: > 100 µM
[9]
  TGI: > 100 µM
[11]
  TGI: > 100 µM
[12]
  TGI: > 100 µM
[13]
  TGI: > 100 µM
[14]
  TGI: > 100 µM
[16]
  TGI: > 100 µM
[17]
  TGI: > 100 µM
[18]
  TGI: > 100 µM
[58]
  TGI: > 100 µM
[20]
  TGI: > 100 µM
[21]
  TGI: > 100 µM
[22]
  TGI: > 100 µM
[59]
  TGI: > 100 µM
[23]
  TGI: > 100 µM
[24]
  TGI: > 100 µM
[25]
  TGI: > 100 µM
[26]
  TGI: > 100 µM
[27]
  TGI: > 100 µM
[28]
  TGI: > 100 µM
[29]
  TGI: > 100 µM
[30]
  TGI: > 100 µM
[32]
  TGI: > 100 µM
[33]
  TGI: > 100 µM
[34]
  TGI: > 100 µM
[35]
  TGI: > 100 µM
[36]
  TGI: > 100 µM
[37]
  TGI: > 100 µM
[38]
  TGI: > 100 µM
[39]
  TGI: > 100 µM
[40]
  TGI: > 100 µM
[41]
  TGI: > 100 µM
[42]
  TGI: > 100 µM
[43]
  TGI: > 100 µM
[44]
  TGI: > 100 µM
[45]
  TGI: > 100 µM
[46]
  TGI: > 100 µM
[48]
  TGI: > 100 µM
[49]
  TGI: > 100 µM
[50]
  TGI: > 100 µM
[51]
  TGI: > 100 µM
[53]
  TGI: > 100 µM
[54]
  TGI: > 100 µM
[55]
  TGI: > 100 µM
[56]
  TGI: > 100 µM
[57]
  TGI: > 100 µM
